Laboratory results from patent US6737383B1, “Herbicidal oxadiazolidines” (priority 1999, dated 2004).

Experiments:
surinam grass = experiment: Test B pre/postemergence surinam grass; format: in vivo, Brachiaria decumbens
Procedure, shortened: (§1)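 Response is a visual 0-to-10 score relative to untreated plants, where 0 means no effect and 10 means complete control, taken twelve to sixteen days after application. Treatments went onto soil at planting and onto foliage of 1- to 4-leaf plants, using a surfactant-containing non-phytotoxic solvent.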

wild oat = experiment: Test B pre/postemergence wild oat; format: in vivo, Avena fatua
Procedure, shortened: as §1

corn = experiment: Test B pre/postemergence corn; format: in vivo, Zea mays
Procedure, shortened: as §1

purple nutsedge = experiment: Test B pre/postemergence purple nutsedge; format: in vivo, Cyperus rotundus
Procedure, shortened: as §1

giant foxtail = experiment: Test B pre/postemergence giant foxtail; format: in vivo, Setaria faberii
Procedure, shortened: as §1

rape = experiment: Test B pre/postemergence rape; format: in vivo, Brassica napus
Procedure, shortened: as §1

pigweed = experiment: Test B pre/postemergence pigweed; format: in vivo, Amaranthus retroflexus
Procedure, shortened: as §1

smallflower flatsedge = experiment: Test B flood test smallflower flatsedge; format: in vivo, Cyperus difformis
Procedure, shortened: (§2)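 Each value is a visual injury score relative to controls, with 10 meaning complete control and 0 no effect. Evaluation took place twelve to sixteen days after the 2-leaf-stage plants were treated and kept in the greenhouse.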

cocklebur = experiment: Test B pre/postemergence cocklebur; format: in vivo, Xanthium strumarium
Procedure, shortened: as §1

wheat = experiment: Test B pre/postemergence wheat; format: in vivo, Triticum aestivum
Procedure, shortened: as §1

soybean = experiment: Test B pre/postemergence soybean; format: in vivo, Glycine max
Procedure, shortened: as §1

sugar beet = experiment: Test B pre/postemergence sugar beet; format: in vivo, Beta vulgaris
Procedure, shortened: as §1

rice = experiment: Test B flood test rice; format: in vivo, Oryza sativa
Procedure, shortened: as §2

velvetleaf = experiment: Test B pre/postemergence velvetleaf; format: in vivo, Abutilon theophrasti
Procedure, shortened: as §1

duck salad = experiment: Test B flood test duck salad; format: in vivo, Heteranthera limosa
Procedure, shortened: as §2

[1] = Postemergence, Rate 500 g/ha, scale of 0 to 10 where 0 is no effect and 10 is complete control
[2] = Preemergence, Rate 62 g/ha, scale of 0 to 10 where 0 is no effect and 10 is complete control
[3] = Preemergence, Rate 125 g/ha, scale of 0 to 10 where 0 is no effect and 10 is complete control
[4] = Preemergence, Rate 250 g/ha, scale 0 to 10, 0 is no effect, 10 is complete control
[5] = Preemergence, Rate 500 g/ha, scale 0 to 10, 0 is no effect, 10 is complete control
[6] = Rate 62 g/ha, Postemergence, scale 0 to 10, 0 no effect, 10 complete control
[7] = Rate 125 g/ha, Postemergence, scale 0 to 10, 0 is no effect, 10 is complete control
[8] = Postemergence, Rate 250 g/ha, scale 0 to 10
[9] = Rate 62 g/ha, flood test species, Pre-emergence, visual evaluation after twelve to sixteen days
[10] = Rate 125 g/ha, under heading Pre-emergence, flood test species, visual evaluation after twelve to sixteen days
[11] = Rate 250 g/ha, Pre-emergence (flood test species), scale 0 to 10, 0 is no effect, 10 is complete control
[12] = Rate 500 g/ha, Pre-emergence, flood test species, scale 0 to 10 (0 no effect, 10 complete control)

COC(C)n1c(=O)on(C(=O)N(c2ccc(F)cc2)C(C)C)c1=O (stereo not drawn) [Compound 439]
0: B. signalgrass plant response rating (surinam grass; Postemergence, Rate 250 g/ha, scale 0 to 10, 0 no effect, 10 complete control) | B. signalgrass plant response rating (surinam grass; [1]) | Plant response rating, B. signalgrass (surinam grass; [2]) | Plant response rating, B. signalgrass (surinam grass; [3]) | B. signalgrass plant response rating (surinam grass; [4]) | B. signalgrass plant response rating (surinam grass; [5]) | B. signalgrass plant response rating (surinam grass; [6]) | B. signalgrass plant response rating (surinam grass; [7]) | Wild oats plant response rating (wild oat; [8]) | Wild oats plant response rating (wild oat; [1]) | Plant response rating, Wild oats (wild oat; [2]) | Plant response rating, Wild oats (wild oat; [3]) | Wild oats plant response rating (wild oat; [4]) | Wild oats plant response rating (wild oat; [5]) | Wild oats plant response rating (wild oat; [6]) | Wild oats plant response rating (wild oat; [7]) | Corn plant response rating (corn; [8]) | Corn plant response rating (corn; [1]) | Plant response rating, Corn (corn; [2]) | Plant response rating, Corn (corn; [3]) | Corn plant response rating (corn; [4]) | Corn plant response rating (corn; [5]) | Corn plant response rating (corn; [6]) | Corn plant response rating (corn; [7]) | Nutsedge plant response rating (purple nutsedge; [8]) | Nutsedge plant response rating (purple nutsedge; [1]) | Plant response rating, Nutsedge (purple nutsedge; [2]) | Plant response rating, Nutsedge (purple nutsedge; [3]) | Nutsedge plant response rating (purple nutsedge; [4]) | Nutsedge plant response rating (purple nutsedge; [5]) | Nutsedge plant response rating (purple nutsedge; [6]) | Nutsedge plant response rating (purple nutsedge; [7]) | Giant foxtail plant response rating (giant foxtail; [8]) | Giant foxtail plant response rating (giant foxtail; [1]) | Plant response rating, Giant foxtail (giant foxtail; [2]) | Plant response rating, Giant foxtail (giant foxtail; [3]) | Giant foxtail plant response rating (giant foxtail; [4]) | Giant foxtail plant response rating (giant foxtail; [5]) | Giant foxtail plant response rating (giant foxtail; [6]) | Giant foxtail plant response rating (giant foxtail; [7]) | Rape plant response rating (rape; [8]) | Rape plant response rating (rape; [1]) | Plant response rating, Rape (rape; [2]) | Plant response rating, Rape (rape; [3]) | Rape plant response rating (rape; [4]) | Rape plant response rating (rape; [5]) | Rape plant response rating (rape; [6]) | Rape plant response rating (rape; [7]) | Redroot pigweed plant response rating (pigweed; [8]) | Redroot pigweed plant response rating (pigweed; [1]) | Plant response rating, Redroot pigweed (pigweed; [2]) | Plant response rating, Redroot pigweed (pigweed; [3]) | Redroot pigweed plant response rating (pigweed; [4]) | Redroot pigweed plant response rating (pigweed; [5]) | Redroot pigweed plant response rating (pigweed; [6]) | Redroot pigweed plant response rating (pigweed; [7]) | Plant response rating, S. Flatsedge (0 to 10 scale, 0 is no effect, 10 is complete control) (smallflower flatsedge; [9]) | S. Flatsedge plant response rating (0 to 10 scale, 0 is no effect, 10 is complete control) (smallflower flatsedge; [10]) | S. Flatsedge plant response rating (smallflower flatsedge; [11]) | S. Flatsedge plant response rating (smallflower flatsedge; [12]) | Cocklebur plant response rating (cocklebur; [8]) | Cocklebur plant response rating (cocklebur; [1]) | Plant response rating, Cocklebur (cocklebur; [2]) | Plant response rating, Cocklebur (cocklebur; [3]) | Cocklebur plant response rating (cocklebur; [4]) | Cocklebur plant response rating (cocklebur; [5]) | Cocklebur plant response rating (cocklebur; [6]) | Cocklebur plant response rating (cocklebur; [7]) | Wheat plant response rating (wheat; [8]) | Wheat plant response rating (wheat; [1]) | Plant response rating, Wheat (wheat; [2]) | Plant response rating, Wheat (wheat; [3]) | Wheat plant response rating (wheat; [4]) | Wheat plant response rating (wheat; [5]) | Wheat plant response rating (wheat; [6]) | Wheat plant response rating (wheat; [7]) | Soybean plant response rating (soybean; [8]) | Soybean plant response rating (soybean; [1]) | Plant response rating, Soybean (soybean; [2]) | Plant response rating, Soybean (soybean; [3]) | Soybean plant response rating (soybean; [4]) | Soybean plant response rating (soybean; [5]) | Soybean plant response rating (soybean; [6]) | Soybean plant response rating (soybean; [7]) | Sugarbeets plant response rating (sugar beet; [8]) | Sugarbeets plant response rating (sugar beet; [1]) | Plant response rating, Sugarbeets (sugar beet; [2]) | Plant response rating, Sugarbeets (sugar beet; [3]) | Sugarbeets plant response rating (sugar beet; [4]) | Sugarbeets plant response rating (sugar beet; [5]) | Sugarbeets plant response rating (sugar beet; [6]) | Sugarbeets plant response rating (sugar beet; [7]) | Plant response rating, Rice (0 to 10 scale, 0 is no effect, 10 is complete control) (rice; [9]) | Rice plant response rating (0 to 10 scale, 0 is no effect, 10 is complete control) (rice; [10]) | Rice plant response rating (rice; [11]) | Rice plant response rating (rice; [12]) | Velvetleaf plant response rating (velvetleaf; [8]) | Velvetleaf plant response rating (velvetleaf; [1]) | Plant response rating, Velvetleaf (velvetleaf; [2]) | Plant response rating, Velvetleaf (velvetleaf; [3]) | Velvetleaf plant response rating (velvetleaf; [4]) | Velvetleaf plant response rating (velvetleaf; [5]) | Velvetleaf plant response rating (velvetleaf; [6]) | Velvetleaf plant response rating (velvetleaf; [7]) | Plant response rating, Ducksalad (0 to 10 scale, 0 is no effect, 10 is complete control) (duck salad; [9]) | Ducksalad plant response rating (0 to 10 scale, 0 is no effect, 10 is complete control) (duck salad; [10]) | Ducksalad plant response rating (duck salad; [11]) | Ducksalad plant response rating (duck salad; [12])
